{
  "source": "paper PMC12420824",
  "about": "“Discovery of a selective alpha-kinase 1 inhibitor for the rare genetic disease ROSAH syndrome” (Nature Communications, 2025)",
  "experiment_in_all_cases": "HotSpot kinase assay",
  "conditions_in_all_cases": "read-out: % Enzyme Activity (relative to DMSO control), 10 uM",
  "key": {"[1]": {"molecular_target": "MYO3b (Homo sapiens, UniProt Q8WXR4)"}, "[2]": {"molecular_target": "PKG1a (Homo sapiens, UniProt Q13976)", "sequence (Q13976 whole entry)": "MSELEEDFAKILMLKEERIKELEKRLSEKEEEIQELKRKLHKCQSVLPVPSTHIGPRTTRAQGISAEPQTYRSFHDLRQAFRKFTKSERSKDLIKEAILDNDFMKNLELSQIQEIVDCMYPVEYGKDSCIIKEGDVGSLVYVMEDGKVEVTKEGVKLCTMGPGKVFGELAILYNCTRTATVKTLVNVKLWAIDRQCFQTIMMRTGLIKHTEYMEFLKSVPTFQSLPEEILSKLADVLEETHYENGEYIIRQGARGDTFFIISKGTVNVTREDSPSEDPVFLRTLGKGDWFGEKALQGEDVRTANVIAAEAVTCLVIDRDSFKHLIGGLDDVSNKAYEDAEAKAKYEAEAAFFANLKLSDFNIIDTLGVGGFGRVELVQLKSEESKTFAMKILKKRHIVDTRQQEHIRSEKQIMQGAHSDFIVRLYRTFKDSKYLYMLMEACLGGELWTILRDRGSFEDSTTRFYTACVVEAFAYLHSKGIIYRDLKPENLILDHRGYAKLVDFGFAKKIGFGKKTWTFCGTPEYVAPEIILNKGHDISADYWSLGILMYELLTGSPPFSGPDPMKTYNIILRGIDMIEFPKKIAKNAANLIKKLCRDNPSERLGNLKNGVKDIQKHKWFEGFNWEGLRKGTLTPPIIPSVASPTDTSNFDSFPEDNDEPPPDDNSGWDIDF", "text": "(§1) Additionally, a 10-dose dilution series of staurosporine and other enzyme-appropriate compounds were included as positive control inhibitors."}, "[3]": {"molecular_target": "MNK2 (Homo sapiens, UniProt Q9HBH9)"}, "[4]": {"molecular_target": "MNK1 (Homo sapiens, UniProt Q9BUB5)"}, "[5]": {"molecular_target": "CDK6/cyclin D1 (Homo sapiens, UniProt Q00534)", "text": "as §1"}, "[6]": {"molecular_target": "CDK5/P25 (Homo sapiens, UniProt Q00535)", "text": "as §1"}, "[7]": {"molecular_target": "VRK1 (Homo sapiens, UniProt Q99986)", "text": "as §1"}, "[8]": {"molecular_target": "RON/MST1R (Homo sapiens, UniProt Q04912)", "text": "as §1"}, "[9]": {"molecular_target": "SIK2 (Homo sapiens, UniProt Q9H0K1)", "text": "as §1"}, "[10]": {"molecular_target": "PAK1 (Homo sapiens, UniProt Q13153)", "text": "as §1"}, "[11]": {"molecular_target": "MRCKb/CDC42BPB (Homo sapiens, UniProt Q9Y5S2)"}, "[12]": {"molecular_target": "AMPK(A1/B1/G3) (Homo sapiens, UniProt Q13131)", "text": "as §1"}, "[13]": {"molecular_target": "EIF2AK2 (Homo sapiens, UniProt P19525)", "text": "as §1"}, "[14]": {"molecular_target": "TRPM7/CHAK1 (Homo sapiens, UniProt Q96QT4)", "sequence (Q96QT4 whole entry)": "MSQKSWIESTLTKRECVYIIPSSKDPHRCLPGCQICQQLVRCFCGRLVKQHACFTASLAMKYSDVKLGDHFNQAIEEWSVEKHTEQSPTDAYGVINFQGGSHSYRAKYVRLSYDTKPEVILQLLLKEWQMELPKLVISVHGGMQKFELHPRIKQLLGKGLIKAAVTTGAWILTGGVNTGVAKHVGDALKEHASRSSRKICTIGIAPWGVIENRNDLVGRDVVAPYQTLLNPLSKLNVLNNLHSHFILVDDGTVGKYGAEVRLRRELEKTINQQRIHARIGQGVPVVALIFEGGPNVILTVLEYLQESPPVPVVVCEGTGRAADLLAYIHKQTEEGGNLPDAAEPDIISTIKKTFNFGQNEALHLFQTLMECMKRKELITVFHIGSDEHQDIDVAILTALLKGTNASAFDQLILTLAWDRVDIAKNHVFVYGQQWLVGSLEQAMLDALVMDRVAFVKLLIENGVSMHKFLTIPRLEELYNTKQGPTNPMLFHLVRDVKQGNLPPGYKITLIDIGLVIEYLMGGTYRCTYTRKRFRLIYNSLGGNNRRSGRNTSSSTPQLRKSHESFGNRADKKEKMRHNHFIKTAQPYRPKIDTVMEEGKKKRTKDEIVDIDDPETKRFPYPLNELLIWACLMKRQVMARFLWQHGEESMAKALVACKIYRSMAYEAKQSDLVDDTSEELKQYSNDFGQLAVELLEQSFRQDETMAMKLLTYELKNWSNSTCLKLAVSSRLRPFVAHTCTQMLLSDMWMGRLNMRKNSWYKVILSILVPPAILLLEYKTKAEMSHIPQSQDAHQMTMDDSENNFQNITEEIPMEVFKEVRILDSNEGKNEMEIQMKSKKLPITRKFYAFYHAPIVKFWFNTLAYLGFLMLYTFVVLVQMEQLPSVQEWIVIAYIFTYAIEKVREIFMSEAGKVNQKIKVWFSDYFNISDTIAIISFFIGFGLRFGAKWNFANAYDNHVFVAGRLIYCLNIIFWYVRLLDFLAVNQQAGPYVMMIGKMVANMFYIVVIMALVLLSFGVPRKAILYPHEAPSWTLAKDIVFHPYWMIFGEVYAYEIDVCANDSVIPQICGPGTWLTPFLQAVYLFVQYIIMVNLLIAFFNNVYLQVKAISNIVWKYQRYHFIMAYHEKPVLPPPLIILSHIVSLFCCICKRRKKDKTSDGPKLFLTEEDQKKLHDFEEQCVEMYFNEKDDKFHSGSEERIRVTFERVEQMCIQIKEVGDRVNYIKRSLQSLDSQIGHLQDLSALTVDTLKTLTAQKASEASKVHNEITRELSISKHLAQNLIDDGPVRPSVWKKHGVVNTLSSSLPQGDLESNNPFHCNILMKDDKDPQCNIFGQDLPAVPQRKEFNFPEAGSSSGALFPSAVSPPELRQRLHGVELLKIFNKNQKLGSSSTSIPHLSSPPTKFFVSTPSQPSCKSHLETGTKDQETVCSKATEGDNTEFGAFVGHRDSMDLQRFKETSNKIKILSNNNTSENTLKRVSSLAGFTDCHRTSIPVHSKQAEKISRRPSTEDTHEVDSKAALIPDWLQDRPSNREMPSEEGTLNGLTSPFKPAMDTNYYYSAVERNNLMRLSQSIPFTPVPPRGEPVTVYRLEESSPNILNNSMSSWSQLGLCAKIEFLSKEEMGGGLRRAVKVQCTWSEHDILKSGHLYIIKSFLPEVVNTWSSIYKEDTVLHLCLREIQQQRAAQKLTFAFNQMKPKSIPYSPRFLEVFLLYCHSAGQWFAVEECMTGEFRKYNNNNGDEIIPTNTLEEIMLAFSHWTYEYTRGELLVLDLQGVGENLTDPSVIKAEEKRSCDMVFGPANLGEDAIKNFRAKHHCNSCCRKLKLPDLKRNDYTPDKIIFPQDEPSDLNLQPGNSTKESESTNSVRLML"}, "[15]": {"molecular_target": "ROS/ROS1 (Homo sapiens, UniProt P08922)", "text": "as §1"}, "[16]": {"molecular_target": "PKCnu/PRKD3 (Homo sapiens, UniProt O94806)", "sequence (O94806 whole entry)": "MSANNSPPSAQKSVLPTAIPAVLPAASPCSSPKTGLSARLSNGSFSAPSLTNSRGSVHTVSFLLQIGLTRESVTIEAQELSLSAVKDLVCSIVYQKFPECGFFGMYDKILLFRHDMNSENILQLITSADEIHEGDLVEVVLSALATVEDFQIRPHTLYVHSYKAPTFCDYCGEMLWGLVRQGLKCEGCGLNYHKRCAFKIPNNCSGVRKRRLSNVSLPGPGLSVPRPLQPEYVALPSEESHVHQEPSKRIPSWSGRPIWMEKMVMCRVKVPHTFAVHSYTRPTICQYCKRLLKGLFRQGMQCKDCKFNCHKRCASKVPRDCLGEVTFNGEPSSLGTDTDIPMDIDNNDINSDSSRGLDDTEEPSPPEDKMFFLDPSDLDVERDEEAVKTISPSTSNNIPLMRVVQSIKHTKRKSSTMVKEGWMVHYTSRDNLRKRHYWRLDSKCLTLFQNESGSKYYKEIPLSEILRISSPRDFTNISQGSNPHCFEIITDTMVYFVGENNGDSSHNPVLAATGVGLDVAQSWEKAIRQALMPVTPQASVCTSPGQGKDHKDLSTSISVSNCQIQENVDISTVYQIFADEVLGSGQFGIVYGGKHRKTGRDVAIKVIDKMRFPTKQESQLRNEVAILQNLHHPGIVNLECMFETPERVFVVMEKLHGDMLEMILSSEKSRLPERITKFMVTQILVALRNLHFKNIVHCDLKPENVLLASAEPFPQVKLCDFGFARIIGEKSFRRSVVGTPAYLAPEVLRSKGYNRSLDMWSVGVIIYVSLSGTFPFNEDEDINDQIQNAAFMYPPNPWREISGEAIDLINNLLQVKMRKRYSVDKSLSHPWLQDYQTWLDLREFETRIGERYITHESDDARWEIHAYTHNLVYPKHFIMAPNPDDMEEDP", "text": "as §1"}, "[17]": {"molecular_target": "STK25/YSK1 (Homo sapiens, UniProt O00506)", "sequence (O00506 whole entry)": "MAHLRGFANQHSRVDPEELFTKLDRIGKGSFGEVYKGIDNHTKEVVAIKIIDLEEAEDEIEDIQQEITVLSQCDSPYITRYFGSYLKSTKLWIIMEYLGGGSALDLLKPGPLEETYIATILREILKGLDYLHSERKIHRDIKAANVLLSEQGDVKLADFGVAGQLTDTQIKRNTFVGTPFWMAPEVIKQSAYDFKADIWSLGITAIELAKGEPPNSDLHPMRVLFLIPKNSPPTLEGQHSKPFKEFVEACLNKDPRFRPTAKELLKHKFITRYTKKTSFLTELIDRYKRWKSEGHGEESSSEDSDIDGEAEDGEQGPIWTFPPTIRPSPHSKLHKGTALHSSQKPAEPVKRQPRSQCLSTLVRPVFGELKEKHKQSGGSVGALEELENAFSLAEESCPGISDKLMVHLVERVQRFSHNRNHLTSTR", "text": "as §1"}, "[18]": {"molecular_target": "HGK/MAP4K4 (Homo sapiens, UniProt O95819)", "text": "as §1"}, "[19]": {"molecular_target": "NEK11 (Homo sapiens, UniProt Q8NG66)", "text": "as §1"}, "[20]": {"molecular_target": "NEK2 (Homo sapiens, UniProt P51955)", "text": "as §1"}, "[21]": {"molecular_target": "CK1g2 (Homo sapiens, UniProt P78368)"}, "[22]": {"molecular_target": "CDK2/CYCLIN E (Homo sapiens, UniProt P24941)", "text": "as §1"}, "[23]": {"molecular_target": "p70S6Kb/RPS6KB2 (Homo sapiens, UniProt Q9UBS0)"}, "[24]": {"molecular_target": "MEK1 (Homo sapiens, UniProt Q02750)", "text": "as §1"}, "[25]": {"molecular_target": "TSSK3/STK22C (Homo sapiens, UniProt Q96PN8)", "sequence (Q96PN8 whole entry)": "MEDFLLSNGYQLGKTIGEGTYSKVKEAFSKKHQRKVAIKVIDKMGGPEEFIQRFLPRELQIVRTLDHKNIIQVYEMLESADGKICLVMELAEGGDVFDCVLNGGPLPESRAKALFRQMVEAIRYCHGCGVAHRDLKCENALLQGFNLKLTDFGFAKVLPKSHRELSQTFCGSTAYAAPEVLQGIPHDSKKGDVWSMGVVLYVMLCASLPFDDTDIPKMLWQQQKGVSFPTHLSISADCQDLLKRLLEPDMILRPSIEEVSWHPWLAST", "text": "as §1"}, "[26]": {"molecular_target": "PLK3 (Homo sapiens, UniProt Q9H4B4)"}, "[27]": {"molecular_target": "MARK2/PAR-1Ba (Homo sapiens, UniProt Q7KZI7)"}, "[28]": {"molecular_target": "AMPK (A1/B2/G2) (Homo sapiens, UniProt Q13131)", "text": "as §1"}, "[29]": {"molecular_target": "BMX/ETK (Homo sapiens, UniProt P51813)"}, "[30]": {"molecular_target": "CDK9/cyclin T1 (Homo sapiens, UniProt P50750)"}, "[31]": {"molecular_target": "SBK1 (Homo sapiens, UniProt Q52WX2)", "text": "as §1"}, "[32]": {"molecular_target": "LOK/STK10 (Homo sapiens, UniProt O94804)", "sequence (O94804 whole entry)": "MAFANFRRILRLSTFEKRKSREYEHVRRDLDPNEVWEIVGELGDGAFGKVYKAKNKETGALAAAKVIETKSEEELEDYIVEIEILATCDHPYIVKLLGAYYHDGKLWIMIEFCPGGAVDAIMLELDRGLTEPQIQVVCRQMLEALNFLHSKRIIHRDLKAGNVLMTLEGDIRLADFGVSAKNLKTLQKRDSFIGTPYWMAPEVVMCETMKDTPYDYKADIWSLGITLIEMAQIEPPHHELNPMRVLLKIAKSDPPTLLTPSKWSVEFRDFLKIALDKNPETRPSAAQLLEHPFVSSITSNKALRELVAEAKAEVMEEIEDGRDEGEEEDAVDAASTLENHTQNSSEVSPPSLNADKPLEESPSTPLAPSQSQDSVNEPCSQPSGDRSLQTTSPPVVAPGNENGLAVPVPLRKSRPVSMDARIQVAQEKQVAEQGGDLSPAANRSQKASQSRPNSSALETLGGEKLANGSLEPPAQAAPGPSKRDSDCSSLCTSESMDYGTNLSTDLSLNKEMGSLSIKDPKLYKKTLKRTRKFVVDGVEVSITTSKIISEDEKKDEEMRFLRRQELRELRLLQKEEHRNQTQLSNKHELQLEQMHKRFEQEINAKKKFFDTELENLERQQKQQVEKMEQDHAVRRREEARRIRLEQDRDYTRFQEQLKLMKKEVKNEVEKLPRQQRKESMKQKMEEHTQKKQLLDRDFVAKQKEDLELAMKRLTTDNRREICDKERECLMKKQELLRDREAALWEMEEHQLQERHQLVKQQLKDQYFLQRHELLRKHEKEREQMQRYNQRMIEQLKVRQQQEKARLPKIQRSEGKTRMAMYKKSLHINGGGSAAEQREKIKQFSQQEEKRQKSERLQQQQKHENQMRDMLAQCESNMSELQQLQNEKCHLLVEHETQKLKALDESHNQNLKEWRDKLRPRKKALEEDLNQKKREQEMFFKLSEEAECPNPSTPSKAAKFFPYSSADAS", "text": "as §1"}, "[33]": {"molecular_target": "MAPKAPK3 (Homo sapiens, UniProt Q16644)", "text": "as §1"}, "[34]": {"molecular_target": "CTK/MATK (Homo sapiens, UniProt P42679)", "text": "as §1"}},
  "data": [
    {"compound": "C#C[C@@](C)(c1ccc(Cl)cc1)c1csc(NC(=O)c2c(F)cc(N3CCNCC3)cc2F)n1", "note": "(stereo in doubt) [DF-003]", "values": [
      {"measurement": "remaining activity at 10 µM", "setting": "[1]", "value": 94.4, "unit": "%"},
      {"measurement": "remaining activity at 10 µM", "setting": "[2]", "value": 111, "unit": "%"},
      {"measurement": "remaining activity at 10 µM", "setting": "[3]", "value": 90.7, "unit": "%"},
      {"measurement": "remaining activity at 10 µM", "setting": "[4]", "value": 85.4, "unit": "%"},
      {"measurement": "remaining activity at 10 µM", "setting": "[5]", "value": 99.8, "unit": "%"},
      {"measurement": "remaining activity at 10 µM", "setting": "[6]", "value": 98.6, "unit": "%"},
      {"measurement": "remaining activity at 10 µM", "setting": "[7]", "value": 117, "unit": "%"},
      {"measurement": "remaining activity at 10 µM", "setting": "[8]", "value": 61.5, "unit": "%"},
      {"measurement": "remaining activity at 10 µM", "setting": "[9]", "value": 88.5, "unit": "%"},
      {"measurement": "remaining activity at 10 µM", "setting": "[10]", "value": 122, "unit": "%"},
      {"measurement": "remaining activity at 10 µM", "setting": "[11]", "value": 94.7, "unit": "%"},
      {"measurement": "remaining activity at 10 µM", "setting": "[12]", "value": 92.7, "unit": "%"},
      {"measurement": "remaining activity at 10 µM", "setting": "[13]", "value": 105, "unit": "%"},
      {"measurement": "remaining activity at 10 µM", "setting": "[14]", "value": 104, "unit": "%"},
      {"measurement": "remaining activity at 10 µM", "setting": "[15]", "value": 93.5, "unit": "%"},
      {"measurement": "remaining activity at 10 µM", "setting": "[16]", "value": 53.2, "unit": "%"},
      {"measurement": "remaining activity at 10 µM", "setting": "[17]", "value": 82.9, "unit": "%"},
      {"measurement": "remaining activity at 10 µM", "setting": "[18]", "value": 90.5, "unit": "%"},
      {"measurement": "remaining activity at 10 µM", "setting": "[19]", "value": 75.3, "unit": "%"},
      {"measurement": "remaining activity at 10 µM", "setting": "[20]", "value": 68.6, "unit": "%"},
      {"measurement": "remaining activity at 10 µM", "setting": "[21]", "value": 121, "unit": "%"},
      {"measurement": "remaining activity at 10 µM", "setting": "[22]", "value": 90.1, "unit": "%"},
      {"measurement": "remaining activity at 10 µM", "setting": "[23]", "value": 58.1, "unit": "%"},
      {"measurement": "remaining activity at 10 µM", "setting": "[24]", "value": 102, "unit": "%"},
      {"measurement": "remaining activity at 10 µM", "setting": "[25]", "value": 53.7, "unit": "%"},
      {"measurement": "remaining activity at 10 µM", "setting": "[26]", "value": 102, "unit": "%"},
      {"measurement": "remaining activity at 10 µM", "setting": "[27]", "value": 91.2, "unit": "%"},
      {"measurement": "remaining activity at 10 µM", "setting": "[28]", "value": 113, "unit": "%"},
      {"measurement": "remaining activity at 10 µM", "setting": "[29]", "value": 87.5, "unit": "%"},
      {"measurement": "remaining activity at 10 µM", "setting": "[30]", "value": 116, "unit": "%"},
      {"measurement": "remaining activity at 10 µM", "setting": "[31]", "value": 94.3, "unit": "%"},
      {"measurement": "remaining activity at 10 µM", "setting": "[32]", "value": 62.4, "unit": "%"},
      {"measurement": "remaining activity at 10 µM", "setting": "[33]", "value": 112, "unit": "%"},
      {"measurement": "remaining activity at 10 µM", "setting": "[34]", "value": 80.2, "unit": "%"}
    ]}
  ]
}
